# Test results taken from patent US20090176839A1, “FORMULATIONS OF 3-(6-(1-(2,2-DIFLUOROBENZO[D][1,3]DIOXOL-5-YL) CYCLOPROPANECARBOXAMIDO)-3-METHYLPYRIDIN-2-YL)BENZOIC ACID” (priority 2007, published 2009).
# Read-outs that look alike come from different tables or passages of the source.
# Experiment: Toxicokinetics in 14-day oral toxicity study in dogs
# Settings: dog, in vivo, 200 mg/kg/day
# From the text: There were no major differences noted in TK parameters between males and females, or when comparing study Day 1 to study Day 14.
smiles,measurement,setting,value
"Cc1ccc(NC(=O)C2(c3ccc4c(c3)OC(F)(F)O4)CC2)nc1-c1cccc(C(=O)O)c1 [Compound 1, 3-(6-(1-(2,2-difluorobenzo[d][1,3]dioxol-5-yl)cyclopropanecarboxamido)-3-methylpyridin-2-yl)benzoic acid]",AUC(0-t),"both sexes, dogs, at the NOAEL (200 mg/kg/day), read-out: average AUC0-24hr",645 µg·h/mL
same,Cmax,"both sexes, dogs, at the NOAEL (200 mg/kg/day), read-out: average Cmax",75 µg/mL
same,Tmax,"female, beagle, Study Day 1, Female",4 h
same,AUC(0-t),"female, beagle, Study Day 1, Female, read-out: AUC0-24 hr",573 µg·h/mL
same,Cmax,"female, beagle, Study Day 1, Female, read-out: Cmax",56 µg/mL
same,Tmax,"female, beagle, Study Day 14, Female",3 h
same,AUC(0-t),"female, beagle, Study Day 14, Female, read-out: AUC0-24 hr",720 µg·h/mL
same,Cmax,"female, beagle, Study Day 14, Female, read-out: Cmax",77 µg/mL
same,Tmax,"male, beagle, Study Day 1, Male",3 h
same,AUC(0-t),"male, beagle, Study Day 1, Male, read-out: AUC0-24 hr",691 µg·h/mL
same,Cmax,"male, beagle, Study Day 1, Male, read-out: Cmax",77 µg/mL
same,Tmax,"male, beagle, Study Day 14, Male",3 h
same,AUC(0-t),"male, beagle, Study Day 14, Male, read-out: AUC0-24 hr",598 µg·h/mL
same,Cmax,"male, beagle, Study Day 14, Male, read-out: Cmax",72 µg/mL
